{"source": "patent US20250127761A1", "about": "“Telmisartan Nanosuspension for Therapy of Respiratory Infections and Methods of Making and Using Same” (Soligenix, Inc., priority 2022, published 2025)", "key": {"ANG II type 1 receptor": {"tested_on": "ANG II type 1 receptor", "test": "Inhibition of ANG II-mediated intracellular calcium spike in lung smooth muscle cells", "assay_type": "cell-based"}, "[1]": {"settings": "cynomolgus monkey, in vivo"}}, "data": [{"smiles": "CCCc1nc2c(C)cc(-c3nc4ccccc4n3C)cc2n1Cc1ccc(-c2ccccc2C(=O)O)cc1", "note": "[FD-TEL, telmisartan]", "values": [{"measurement": "ANG II-mediated transient [Ca2+]i spike", "setting": "ANG II type 1 receptor", "value": "equally and entirely abrogated"}, {"measurement": "creatine kinase", "setting": "[1]", "value": "significant increase"}]}]}
